Solubility and dissolution rate data for two molecules are collected here from patent publication US9522120B2, “Compositions and methods of making sustained release liquid formulations” (NEOS THERAPEUTICS, LP, priority 2005, dated 2016).

For data set [1] the following is noted: water and alcohol; cited from earlier work.
Data set [2] can be described thus: Dissolution of phenylephrine sustained release coated beads. Format: physicochemical. Particulars: when combined with Gauifenesin DC. Here is the method: Due to this effect the testing of the dissolution rate is achieved by first making a mock-up of the finished product. By doing so the suitability of the phenylephrine beads was determined more accurately. Direct specifications for dissolution were determined once data was collected to accurately predict this rate change.

Regarding `COc1ccccc1OCC(O)CO` (centres unmarked) [Guaifenesin, 3(2-methoxyphenoxy)-1,2-propanediol], the solubility result in data set [1] is “soluble in water and alcohol”.
Regarding `CNC[C@H](O)c1cccc(O)c1` [phenylephrine], the dissolution rate result in data set [2] is “accelerated”.
